According to PMC10410440, “Preclinical PK investigation of a novel IDO1/TDO dual inhibitor—SHR9146 in mouse plasma and tissues by LC-MS/MS” (Frontiers in Oncology, 2023):
“And” between values parts separate entries of the source, which are not always exact repeats. Equal values may be shown once. Read-outs that look alike come from different tables or passages of the source.

Assay: Tissue distribution of SHR9146 in mice after oral gavage of 40 mg/kg
Type: in vivo, ICR mice
Details: male, 40 mg/kg oral gavage; for concentration at 1 h / concentration at 3 h / concentration at 6 h: ICR, mouse, po
Method: ICR mice with body weight 16–26 g were supplied by Shanghai Lingchang Biotechnology Co., Ltd. (animal breeding license number SCXK (Shanghai) 2013-0018) and housed at Shanghai Institute of Materia Medica, Chinese Academy of Sciences [animal use license number SYXK (Shanghai) 2015-0027]. The mice used in this study were fasted overnight for 12 h but had free access to water. Food was supplied 4 h post-dose. All experiments in this study were conducted in accordance with the Guidelines for the Care and Use of Laboratory Animals of Shanghai Institute of Materia Medica, Chinese Academy of Sciences.
Another set of 30 mice were randomly assigned into five groups with equal numbers, males and females, for tissue distribution study with oral gavage at a single dose of 40 mg/kg at predetermined different time points: pre-dose and post dose at 1, 3, 6, and 24 h, respectively. The whole brain, heart, liver, spleen, lung, kidney, bladder, pancreas, testis, ovary, uterus, stomach, small intestine, adrenal gland, skin, skeletal muscle, thyroid gland, and abdominal fat tissues as well as the whole blood and plasma samples were harvested. Tissue samples were washed with 0.9% sodium chloride solution to remove the residual blood or contents, blotted on a filter paper, and stored at −70°C prior to the analysis.
Protein precipitation was selected for the pretreatment of both the plasma and the tissue homogenate prepared after thawing at room temperature, cut into pieces, and homogenized with a quintuple methanol–water mixture (1:1, v/v) for each tissue sample.
Briefly as follows, an aliquot of 25-μL plasma or tissue homogenate was spiked with 100 μL of internal standard solution (1 μg/mL for plasma, 0.2 μg/mL for tissue homogenate) and 300 μL of methanol added and vortex mixed for 60 s. The mixture was then centrifuged at 14,000 rpm at 4°C for 5.0 min, and the supernatant was diluted with methanol–water (4:1, v/v) in a ratio of 1:9 for the plasma or 1:1 for the tissue homogenate, and 5 μL of the resulting solution was injected for the LC-MS/MS analysis.
After oral administration of 40 mg/kg SHR9146, samples in different tissues at predetermined time points (pre-drug administration, post-drug administration at 1, 3, 6, and 24 h) were collected and prepared for the analysis. The drug concentrations of SHR9146 (μg/g or μg/mL) were determined for each mouse, and the mean and standard deviation were further obtained (Table S7).

[1] = 24 h, individual mice, 40 mg/kg

## OCCn1cc(-c2ccc(N3CCC([C@H]4c5c(F)cccc5-c5cncn54)CC3)cc2)cn1 [SHR9146]
1 h, individual mice, 40 mg/kg
  SHR9146 concentration in Pancreas: 15.265 µg/g and 8.681 µg/g
  SHR9146 concentration in Plasma: 11.481 µg/mL and 5.761 µg/mL
  SHR9146 concentration in Small intestine: 24.690 µg/g and 24.120 µg/g
3 h, individual mice, 40 mg/kg
  SHR9146 concentration in Bladder: 0.390 µg/g and 6.162 µg/g and 6.598 µg/g
  SHR9146 concentration in Brain: BLQ
  SHR9146 concentration in Kidney: 0.314 µg/g and 6.873 µg/g and 7.165 µg/g
  SHR9146 concentration in Liver: 1.367 µg/g and 13.792 µg/g and 13.853 µg/g
  SHR9146 concentration in Lung: 0.798 µg/g and 7.286 µg/g and 7.382 µg/g
  SHR9146 concentration in Pancreas: 0.231 µg/g and 7.160 µg/g and 7.228 µg/g
  SHR9146 concentration in Small intestine: 0.411 µg/g and 11.992 µg/g and 8.326 µg/g
6 h, individual mice
  SHR9146 concentration in Brain: BLQ
6 h, individual mice, 40 mg/kg
  SHR9146 concentration in Abdominal fat: BLQ
  SHR9146 concentration in Adrenal gland: BLQ and 0.313 μg/g
  SHR9146 concentration in Bladder: BLQ and 0.199 μg/g
  SHR9146 concentration in Heart: BLQ
  SHR9146 concentration in Kidney: 0.159 µg/g and 0.129 µg/g and 0.344 µg/g
  SHR9146 concentration in Liver: 0.702 µg/g and 0.351 µg/g and 0.845 µg/g
  SHR9146 concentration in Lung: 0.510 µg/g and 0.701 µg/g
  SHR9146 concentration in Pancreas: BLQ and 0.127 μg/g
  SHR9146 concentration in Plasma: BLQ
  SHR9146 concentration in Skeletal muscle: BLQ
  SHR9146 concentration in Small intestine: BLQ and 0.152 μg/g
  SHR9146 concentration in Spleen: BLQ
  SHR9146 concentration in Whole blood: BLQ
  SHR9146 concentration in thyroid gland: BLQ
24 h, individual mice
  SHR9146 concentration in Abdominal fat: BLQ
  SHR9146 concentration in Adrenal gland: BLQ
  SHR9146 concentration in Bladder: BLQ
  SHR9146 concentration in Brain: BLQ
  SHR9146 concentration in Heart: BLQ
  SHR9146 concentration in Pancreas: BLQ
  SHR9146 concentration in Plasma: BLQ
  SHR9146 concentration in Skeletal muscle: BLQ
  SHR9146 concentration in Small intestine: BLQ
  SHR9146 concentration in Spleen: BLQ
  SHR9146 concentration in Testis: BLQ
  SHR9146 concentration in Whole blood: BLQ
  SHR9146 concentration in thyroid gland: BLQ
[1]
  SHR9146 concentration in Kidney: BLQ
  SHR9146 concentration in Liver: BLQ
  SHR9146 concentration in Lung: 0.064 µg/g and 0.105 µg/g
  SHR9146 concentration in Skin: BLQ
Abdominal fat, 40 mg/kg, 1 h, Mean (n=3), read-out: SHR9146 concentration in Abdominal fat
  concentration at 1 h: 7200 ng/g
Abdominal fat, 40 mg/kg, 3 h, Mean (n=3), read-out: SHR9146 concentration in Abdominal fat
  concentration at 3 h: 4070 ng/g
Abdominal fat, 40 mg/kg, 6 h, Mean (n=3), read-out: SHR9146 concentration in Abdominal fat
  concentration at 6 h: 75 ng/g
Adrenal gland, 40 mg/kg, 1 h, Mean (n=3), read-out: SHR9146 concentration in Adrenal gland
  concentration at 1 h: 23600 ng/g
Adrenal gland, 40 mg/kg, 1 h, individual mice, read-out: SHR9146 concentration in Adrenal gland
  concentration at 1 h: 24100 ng/g
Adrenal gland, 40 mg/kg, 3 h, Mean (n=3), read-out: SHR9146 concentration in Adrenal gland
  concentration at 3 h: 8450 ng/g
Adrenal gland, 40 mg/kg, 6 h, Mean (n=3), read-out: SHR9146 concentration in Adrenal gland
  concentration at 6 h: 163 ng/g
Adrenal gland, 40 mg/kg, 6 h, individual mice, read-out: SHR9146 concentration in Adrenal gland
  concentration at 6 h: 177 ng/g
bladder, 40 mg/kg, 1 h, Mean (n=3), read-out: SHR9146 concentration in Bladder
  concentration at 1 h: 12400 ng/g
bladder, 40 mg/kg, 1 h, individual mice, read-out: SHR9146 concentration in Bladder
  concentration at 1 h: 12500 ng/g
bladder, 40 mg/kg, 3 h, Mean (n=3), read-out: SHR9146 concentration in Bladder
  concentration at 3 h: 4380 ng/g
bladder, 40 mg/kg, 6 h, Mean (n=3), read-out: SHR9146 concentration in Bladder
  concentration at 6 h: 163 ng/g
bladder, 40 mg/kg, 6 h, individual mice, read-out: SHR9146 concentration in Bladder
  concentration at 6 h: 291 ng/g
brain, 40 mg/kg, 1 h, Mean (n=3), read-out: SHR9146 concentration in Brain
  concentration at 1 h: 1890 ng/g
brain, 40 mg/kg, 1 h, individual mice, read-out: SHR9146 concentration in Brain
  concentration at 1 h: 2280 ng/g
brain, 40 mg/kg, 3 h, Mean (n=3), read-out: SHR9146 concentration in Brain
  concentration at 3 h: 666 ng/g
brain, 40 mg/kg, 3 h, individual mice, read-out: SHR9146 concentration in Brain
  concentration at 3 h: 1020 ng/g
heart, 40 mg/kg, 1 h, Mean (n=3), read-out: SHR9146 concentration in Heart
  concentration at 1 h: 7320 ng/g
heart, 40 mg/kg, 1 h, individual mice, read-out: SHR9146 concentration in Heart
  concentration at 1 h: 8420 ng/g
heart, 40 mg/kg, 3 h, Mean (n=3), read-out: SHR9146 concentration in Heart
  concentration at 3 h: 2660 ng/g
heart, 40 mg/kg, 6 h, Mean (n=3), read-out: SHR9146 concentration in Heart
  concentration at 6 h: 48 ng/g
heart, 40 mg/kg, 6 h, individual mice, read-out: SHR9146 concentration in Heart
  concentration at 6 h: 61 ng/g
kidney, 40 mg/kg, 1 h, Mean (n=3), read-out: SHR9146 concentration in Kidney
  concentration at 1 h: 11900 ng/g
kidney, 40 mg/kg, 1 h, individual mice, read-out: SHR9146 concentration in Kidney
  concentration at 1 h: 12300 ng/g
kidney, 40 mg/kg, 3 h, Mean (n=3), read-out: SHR9146 concentration in Kidney
  concentration at 3 h: 4780 ng/g
